Measurements as given in PMC9908594, “Biochemical characterization and identification of ferulenol and embelin as potent inhibitors of malate:quinone oxidoreductase from Campylobacter jejuni” (Frontiers in Molecular Biosciences, 2023).
Where “and” joins values, the source holds several entries; their conditions need not be identical. Equal entries are not always repeated. Where two headings read alike, the source gives them in different places.

Legend:
TgMQO = system: TgMQO; parameters: method as in Acharjee et al., 2021; conditions: ref Acharjee et al., 2021, cited from earlier work
CjMQO [1] = molecular target: T1, CjMQO (Campylobacter jejuni, UniProt P56954); experiment: Steady-state kinetics of purified CjMQO for substrates; format: biochemical; conditions: for K m for malate: malate varied; for V max / k cat / k cat /K m / K m for ubiquinone: UQ varied, malate fixed 10 mM; for K m for ubiquinone: pH 7.0, 37°C
Experimental: (§1) The steady-state kinetic parameters of CjMQO were determined for malate and ubiquinone (UQ) with different side chain length (UQ0, UQ1, UQ2, UQ4, and dUQ; Supplementary Figure S3). The reaction mixture contained UQ, 1% (v/v) ethanol, 50 mM MOPS, 1 mM KCN and 0.2 μg/mL of purified CjMQO at the optimal pH (pH 7.0) and physiological temperature (37°C). The reduction of quinones was measured through the decrease in the absorbance at 278 nm ( ε278= 15 mM^-1 cm^-1). The Michaelis constant (K m) and maximum velocity (V max) of CjMQO for UQs were determined by varying the concentrations of UQs from 0.1 to 100 μM with the malate concentration fixed at 10 mM.
(§2) Next, K m and V max of CjMQO for malate were determined by varying the concentrations from 0.5 to 50 mM at fixed concentrations of different UQs (100 μM for UQ0 and UQ1 and 10 μM for dUQ and UQ2). The apparent steady-state kinetic parameters were calculated by Michaelis-Menten equation using GraphPad Prism software (ver. 9.3.1, GraphPad Software, Inc., San Diego, California, United States). Following the protocol previously described for TgMQO ([Acharjee et al., 2021]), the reaction mechanism of CjMQO was analysed using malate and UQ1 as substrates. Briefly, CjMQO activity was measured at different UQ1 concentrations (2, 5, 10, 20, and 50 μM) with malate concentrations fixed at 0.5, 2, and 5 mM; the data were then analysed using a double reciprocal plot (Lineweaver-Burk plot) produced by utilizing intercept and slope calculated from steady-state kinetics parameters obtained by fitting the data to Michalis-Menten equation with GraphPad Prism software. The type of reaction mechanism was determined based on the characteristics of the lines plotted in the double reciprocal plot.

PfMQO = system: PfMQO; parameters: method as in Hartuti et al., 2018; conditions: for dUQ; ref Hartuti et al., 2018; cited from earlier work
human fibroblasts = system: human fibroblasts; parameters: method as in Feresin et al., 2003; conditions: ref Feresin et al., 2003, read-out: Toxic concentration IC50; cited from earlier work
C. jejuni ATCC29428 = experiment: C. jejuni growth inhibition, resazurin assay; format: cell-based, Campylobacter jejuni
CjMQO [2] = molecular target: T1, CjMQO; experiment: Inhibition mechanism of CjMQO (mixed-model fit, Lineweaver-Burk); format: biochemical
Experimental: The inhibition mechanism of the two compounds were investigated as described in a previous study ([Acharjee et al., 2021]). First, the inhibition mechanism versus UQ1 was assayed separately in a reaction mixture containing 50 mM MOPS pH 7.0, 1 mM KCN and 0.2 μg/mL of purified CjMQO containing a range of different ferulenol (0, 0.01, 0.02, and 0.04 μM) and embelin (0, 0.05, 0.1, and 0.15 μM) concentrations. Enzyme activity was measured at varying concentrations of UQ1 (5, 10, 20, 50, and 100 μM) and the reaction was initiated with 10 mM malate. Second, the inhibition mechanism versus malate was determined at 50 μM of UQ1, and the reaction was initiated with varying concentrations of malate (5, 10, 15, and 20 mM) and monitored at 278 nm, in singlets. The steady-state kinetics parameters, in the presence of inhibitors, were used to produce the Lineweaver-Burk plot. Next, the data were fitted to a mixed-type inhibition equation by a nonlinear-regression method using GraphPad Prism software. The intercept and slope from the primary plot (Lineweaver-Burk plot), were replotted as a function of the inhibitor. Finally, additional analysis was performed based on Dixon and Cornish Bowden plots in addition to the plot of Lineweaver-Burk to differentiate the types of inhibition mechanisms.

[3] = molecular target: CjMQO (malate:quinone oxidoreductase from C. jejuni) (Campylobacter jejuni, UniProt P56954); experiment: biochemical; format: biochemical; conditions: 50 mM MOPS pH 7.0, 100 μM UQ1, 1 mM KCN, 0.2 μg/mL CjMQO, 10 mM malate; read-out: IC50 on purified CjMQO
[4] = substrate: O=C(O)CC(O)C(=O)O; experiment: Steady-state kinetics of purified CjMQO for substrates; format: biochemical; conditions: other: malate varied, pH 7.0, 37.0 °C
Experimental: as §1, §2

[5] = substrate: COC1=C(OC)C(=O)C(CC=C(C)C)=C(C)C1=O; experiment: as above; format: biochemical; conditions: pH 7.0, 37.0 °C
Experimental: as §1, §2

[6] = substrate: CCCCCCCCCCC1=C(C)C(=O)C(OC)=C(OC)C1=O; experiment: as above; format: biochemical; conditions: other: UQ varied, malate fixed 10 mM; pH 7.0; 37.0 °C
Experimental: as §1, §2

[7] = other: UQ varied, malate fixed 10 mM

O=C(O)CC(O)C(=O)O (stereo not shown) [Malate, sodium malate]
K m of TgMQO for malate (TgMQO; in the presence of UQ1): 370 µM | K m of TgMQO for malate (TgMQO; in the presence of UQ2): 637 µM | K m of TgMQO for malate (TgMQO; in the presence of dUQ): 466 µM | K m for malate (CjMQO [1]; UQ0 fixed (100 μM)): 298 ± 18 µM | K m for malate (CjMQO [1]; UQ0 fixed (100 μM), listed as malate): 298 µM | K m for malate (CjMQO [1]; UQ1 fixed (100 μM)): 882 ± 49 µM | K m for malate (CjMQO [1]; UQ1 fixed (100 μM), listed as malate): 882 µM | K m for malate (CjMQO [1]; UQ2 fixed (10 μM)): 1,031 ± 93 μM | K m for malate (CjMQO [1]; UQ2 fixed (10 μM), listed as malate): 1,031 μM | K m for malate (CjMQO [1]; dUQ fixed (10 μM)): 1,209 ± 160 μM | K m for malate (CjMQO [1]; dUQ fixed (10 μM), listed as malate): 1,209 μM | K m of PfMQO for malate (PfMQO): 5,990 μM

COC1=C(OC)C(=O)C(C/C=C(\C)CCC=C(C)C)=C(C)C1=O [UQ2]
V max (CjMQO [1]): 108 µmol/min/mg and 108 ± 10 µmol/min/mg | k cat (CjMQO [1]): 485 ± 42.0 s⁻¹ | k cat /K m (CjMQO [1]): 1.07e+08 M⁻¹ s⁻¹ | K m for ubiquinone (CjMQO [1]): 4.6 µM and 4.60 ± 1.0 µM

COC1=C(OC)C(=O)C(C)=CC1=O [UQ0]
K m of TgMQO for ubiquinone (TgMQO): 225 µM | V max of TgMQO for ubiquinone (TgMQO): 13 µmol/min/mg | V max (CjMQO [1]): 49 µmol/min/mg and 49.0 ± 2.4 µmol/min/mg | k cat (CjMQO [1]): 219 ± 13.1 s⁻¹ | k cat /K m (CjMQO [1]): 1.3e+06 M⁻¹ s⁻¹ | K m for ubiquinone (CjMQO [1]): 168 µM and 168 ± 12.0 µM

CCCCCCCCCCCC1=C(O)C(=O)C=C(O)C1=O [Embelin, 2,5-dihydroxy-3-undecyl-p-benzoquinone]
IC50 (human fibroblasts): 739 µM | IC50 (C. jejuni ATCC29428; Campylobacter jejuni, ATCC29428, Mueller Hinton broth, 24 h, microaerophilic, 37°C, resazurin): 21 µM | Inhibition of growth of C. jejuni ATCC29428 (C. jejuni ATCC29428; at a concentration of 100 μM): completely inhibited | K m (apparent, mixed-model fit) (CjMQO [2]; UQ1 varied, malate fixed): 47 ± 6.3 µM | V max (apparent, mixed-model fit) (CjMQO [2]; UQ1 varied, malate fixed): 164 ± 11 µmol/min/mg | α versus UQ1 (quinone) (CjMQO [2]; UQ1 varied, malate fixed): 0.998 | K i versus UQ1 (CjMQO [2]; UQ1 varied, malate fixed (10 mM)): 0.14 µM | Inhibition type versus UQ1 (quinone) (CjMQO [2]; UQ1 varied, malate fixed, NC: noncompetitive): noncompetitive | Inhibition type versus malate (CjMQO [2]; malate varied, UQ1 fixed): Mixed | K m (apparent, mixed-model fit) (CjMQO [2]; malate varied, UQ1 fixed): 2,225 ± 292 μM | V max (apparent, mixed-model fit) (CjMQO [2]; malate varied, UQ1 fixed): 71 ± 3 µmol/min/mg | α versus malate (CjMQO [2]; malate varied, UQ1 fixed): 1.43 | K i versus malate (CjMQO [2]; malate varied, UQ1 fixed (50 μM)): 0.10 µM | Inhibition type versus malate (CjMQO [2]; malate varied, UQ1 fixed, listed as embelin): mixed-type | IC50 [3]: 0.087 µM

B1: CjMQO (Campylobacter jejuni subsp. jejuni NCTC 11168 = ATCC 700819) (protein)
chain: MSQQEFDVLVIGAGISGAALFYELARYTNIKNIALIEKYNTAATLNSKGTSNSQTIHCGDIETNYTLEKARKVKRTADMIVKYGLMQNAQNNFMFSHQKMALAVGDIECDYMKKRYEEFKELYPYIKFFDKAKIKQIEPKVVLGEDCNQDRPENICAMGVESGEVFTTVDFGKMSINLIEQAQKQNKNTFVAFNQEIIHIEKKDDIFILKTSNHQEYHAKSVVVNAGAHSLYLAHKMNLGMDKSCWPVAGSFYLTKQKLLNGKVYMVQNPKLPFAALHGDPDLLADMNTRFGPTALVIPKLERYHGLKSVPEFFEALKLDKTVLKVTFNMFKDATIRNYIFYNYLFELPFVDKSLFVKDAKKIVPSLKASDIYYAKGFGGVRPQVIDKTKGELMLGEASITETPGIIFNMTPSPGATSCLGNAERDAKLVCNYLGMEFNEDKFSSELL
kcat ([4]; UQ0 fixed (100 μM)): 67 ± 1.1 s⁻¹ | kcat/Km ([4]; UQ0 fixed (100 μM)): 200000 M⁻¹ s⁻¹ | kcat ([4]; UQ1 fixed (100 μM)): 502 ± 55.6 s⁻¹ | kcat/Km ([4]; UQ1 fixed (100 μM)): 600000 M⁻¹ s⁻¹ | kcat ([4]; UQ2 fixed (10 μM)): 389 ± 7.6 s⁻¹ | kcat/Km ([4]; UQ2 fixed (10 μM)): 400000 M⁻¹ s⁻¹ | kcat ([4]; dUQ fixed (10 μM)): 210 ± 19.2 s⁻¹ | kcat/Km ([4]; dUQ fixed (10 μM)): 200000 M⁻¹ s⁻¹ | kcat [5, 7]: 480 ± 18.7 s⁻¹ | kcat/Km [5, 7]: 1.05e+07 M⁻¹ s⁻¹ | Km ([5]; other: malate fixed at 0.5 mM): 16.3 µM | Km ([5]; other: malate fixed at 2 mM): 23.8 µM | Km ([5]; other: malate fixed at 10 mM): 32.6 µM | kcat [6]: 343 ± 40.4 s⁻¹ | kcat/Km [6]: 4.02e+07 M⁻¹ s⁻¹
